According to US6124291A, “Pyrrolo[1,2-a]pyrazine-1,4-dione serine protease inhibitors” (Warner-Lambert Company, priority 1998, dated 2000):

How the values were obtained:
[1] = target: human thrombin (Homo sapiens, UniProt P00734); test: Determination of Thrombin Ki (fluorogenic substrate Tos-Gly-Pro-Arg-AMC); type: biochemical; details: 50 mM Tris-HCl pH 7.52 at 37° C., 0.1 M NaCl, 0.1% poly(ethylene glycol) 8000, room temperature
Procedure: Compounds of the present invention may be prepared for assay by dissolving them in buffer to give solutions ranging in concentrations from 1 to 100 μM. In an assay to determine the inhibitory dissociation constant, Ki, for a given compound, a chromogenic or fluorogenic substrate of thrombin is added to a solution containing a test compound and thrombin; the resulting catalytic activity of the enzyme is spectrophotometrically determined. This assay is well-known to those skilled in the art and is commonly used to determine antithrombotic activity.
The affinity of inhibitors for thrombin was measured according to the procedures described in (DiMaio, et al., J. Biol. Chem., 1990; 265:21698). Inhibition of amidolytic activity of human thrombin was measured fluorometrically using Tos-Gly-Pro-Arg-AMC as a fluorogenic substrate in 50 mM Tris-HCl buffer (pH 7.52 at 37° C.) containing 0.1 M NaCl and 0.1% poly(ethylene glycol) 8000 at room temperature. Buffer substrate and inhibitor were mixed, and the reaction was initiated by adding the enzyme solution. Initial velocities were recorded at several inhibitor and substrate concentrations. Kinetic parameters were determined by fitting the data to a general equation describing enzyme inhibition (Segel, Enzyme Kinetics, Wiley Interscience Publications, 1993). […]

[2] = target: Factor Xa (Homo sapiens, UniProt P00742); test: Determination of Factor Xa IC50 (chromogenic substrate S2765); type: biochemical; details: 60 minutes incubation at room temperature
Chain of Factor Xa (P00742 235-488 limits assumed): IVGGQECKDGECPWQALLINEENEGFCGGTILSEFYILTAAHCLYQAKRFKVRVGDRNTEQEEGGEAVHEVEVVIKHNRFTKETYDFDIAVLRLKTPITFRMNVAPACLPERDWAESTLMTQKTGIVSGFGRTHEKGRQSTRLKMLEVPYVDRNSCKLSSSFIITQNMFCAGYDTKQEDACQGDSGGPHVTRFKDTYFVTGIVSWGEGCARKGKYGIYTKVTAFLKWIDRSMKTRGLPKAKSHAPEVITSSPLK
Chain of Factor Xa (P00742 41-179 limits assumed): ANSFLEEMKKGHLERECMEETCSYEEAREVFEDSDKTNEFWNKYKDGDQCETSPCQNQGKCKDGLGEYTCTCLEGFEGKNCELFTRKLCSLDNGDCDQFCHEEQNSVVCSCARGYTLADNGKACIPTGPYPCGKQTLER
Procedure: (§1) The ability of compounds to act as inhibitors of Factor Xa catalytic activity is assessed by determination of that concentration of test substance that inhibits by 50% (IC50) the ability of Factor Xa to cleave the chromogenic substrate S2765 (N-CBz-D-Arg-L-Gly-L-Arg-p-nitroanilide.cndot.2 HCl). Typically, Factor Xa in 10 mM HEPES, 100 mM NaCl, 0.05% BSA, and 0.1% PEG-8000 and the test substance in DMSO are incubated for 60 minutes at room temperature. To this mixture is added S2765 and the velocity of S2765 hydrolysis measured by observing the intensity of absorbance at 405 nm over 5 minutes.

[3] = target: T1, trypsin (Bos taurus, UniProt P00760); test: Determination of Trypsin IC50 (chromogenic substrate S2222); type: biochemical; details: 60 minutes incubation at room temperature
T1 sequence (P00760 24-246): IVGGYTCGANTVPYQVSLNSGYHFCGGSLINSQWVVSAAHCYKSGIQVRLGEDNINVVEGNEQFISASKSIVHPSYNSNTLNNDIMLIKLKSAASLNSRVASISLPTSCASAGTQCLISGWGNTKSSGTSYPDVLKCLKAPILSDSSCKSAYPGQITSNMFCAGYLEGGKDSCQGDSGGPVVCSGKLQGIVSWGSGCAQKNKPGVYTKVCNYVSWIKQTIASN
Procedure: as §1, with “trypsin” for “Factor Xa”, “S2222 (N-Bz-L-Ile-L-Glu-L-Gly-L-Arg-p-nitroanilide.cndot.HCl).” for “S2765 (N-CBz-D-Arg-L-Gly-L-Arg-p-nitroanilide.cndot.2 HCl).”, “PEG-8000,” for “PEG-8000”, “S2222” for “S2765”

[4] = tested on: carotid artery; test: FeCl3-induced carotid arterial injury model (arterial thrombosis); type: in vivo, rat (male Sprague-Dawley); details: rat; IV bolus 0.75 mg/kg then IV infusion 50 μg/kg/min; time to occlusion in drug-treated divided by control; 60 minutes monitoring
Procedure: The FeCl3-- induced injury to the carotid artery in rats was induced according to the method described by Kurz K. D., Main R. W., Sandusky G. E., Thrombosis Research, 1990; 60:269-280 and Schumacher W. A., et al., J. Pharmacology and Experimental Therapeutics, 1993; 267:1237-1242.
Male, Sprague-Dawley rats (375-410 g) were anesthetized with urethane (1500 mg/kg ip). Animals were laid on a 37° C. heating pad. The carotid artery was exposed through a midline cervical incision. Careful blunt dissection was used to isolate the vessel from the carotid sheath. Using forceps, the artery was lifted to provide sufficient clearance to insert two small pieces of polyethylene tubing (PE-205) underneath it. A temperature probe (Physitemp MT23/3) was placed between one of the pieces of tubing and the artery. Injury was induced by topical application on the carotid artery above the temperature probe of a small disc (3 mm dia.) of Whatman No. 1 filter paper previously dipped in a 35% solution of FeCl3. […] The vessel temperature was monitored for 60 minutes after application of FeCl3 as an indication of blood flow. Vessel temperature changes were recorded on a thermistor (Cole-Palmer Model 08533-41).
The time between the FeCl3 application and the time at which the vessel temperature decreased abruptly (>2.4° C.) was recorded as the time to occlusion of the vessel. […]

`N=C(N)NCCC[C@H](NC(=O)[C@@H]1CC[C@H]2C(=O)N(CCCc3ccccc3)CC(=O)N12)C(=O)c1nccs1` [Example 11, [6S-[6α(R*),8aα]]-1,4-Dioxo-2-(3-phenyl-propyl)-octahydropyrrolo[1,2-a]pyrazine-6-carboxylic acid [4-guanidino-1-(thiazol-2-carbonyl)-butyl]-amide] was tested, and the Ki [1] was 3 nM, the IC50 [2] was 30 nM and the IC50 [3] was less than 1 nM. For the same compound, the “Fold Shift in MOT (mean occlusion time)” value [4] was greater than 3.3.
